Measurements: patent US20150011528A1, “PHENYLIMIDE-CONTAINING BENZOTHIAZOLE DERIVATIVE OF ITS SALT AND PHARMACEUTICAL COMPOSITION COMPRISING THE SAME” (YUHAN CORPORATION, priority 2011, published 2015)

Key:
Type in all cases: cell-based
[1] = target: T1, interaction between the KRS protein and the laminin receptor (LR) (Homo sapiens, UniProt Q15046); assay: Yeast Two Hybrid inhibition of the interaction between the KRS protein and the laminin receptor (LR); details: 1 μL of 20 mM DMSO solution per 200 μL culture; 30° C., 6 days; absorbance 540 nm; non-treated control = 100%
T1 construct: expressed in transfected cells; host or cells: yeast EGY/SH cells
T1 sequence (Q15046 whole entry): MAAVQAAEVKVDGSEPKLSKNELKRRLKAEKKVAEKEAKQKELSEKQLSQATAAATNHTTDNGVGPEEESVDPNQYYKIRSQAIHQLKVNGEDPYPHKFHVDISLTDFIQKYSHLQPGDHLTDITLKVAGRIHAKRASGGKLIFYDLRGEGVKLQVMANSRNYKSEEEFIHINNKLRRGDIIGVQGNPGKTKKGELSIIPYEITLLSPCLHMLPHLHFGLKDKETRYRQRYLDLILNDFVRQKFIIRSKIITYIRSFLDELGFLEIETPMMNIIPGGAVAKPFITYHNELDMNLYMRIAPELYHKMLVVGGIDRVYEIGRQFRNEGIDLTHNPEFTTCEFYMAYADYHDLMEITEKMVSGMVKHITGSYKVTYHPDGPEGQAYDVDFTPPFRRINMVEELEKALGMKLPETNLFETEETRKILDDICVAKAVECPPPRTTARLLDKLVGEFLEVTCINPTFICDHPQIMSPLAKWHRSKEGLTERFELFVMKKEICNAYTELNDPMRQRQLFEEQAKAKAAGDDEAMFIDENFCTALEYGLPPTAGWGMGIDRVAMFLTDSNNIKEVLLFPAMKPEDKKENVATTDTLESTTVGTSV
Description: The inhibitory activity against the interaction between the KRS protein and the laminin receptor (LR) was evaluated according to the Yeast Two Hybrid method described in WO2011/056021. According to the disclosures of WO2011/056021, we prepared a vector obtained by cloning the KRS gene in the LexA vector (Clontech) and a vector obtained by cloning the LR gene in the B42 vector (Clontech). The yeast cells, i.e., EGY/SH cells were co-transformed with the LexA-KRS vector and the B42-LR vector. The co-transformation was carried out using the Yeastmaker yeast transformation system2 kit (Clontech), according to the manufacturer's instruction. […] The cultured yeast cells were diluted with the said galactose medium, until the absorbance at 540 nm attains to about 0.15 to 0.2. The diluted culture (200 μL), containing the yeast cells, was added to each well of a 96-well plate. Each test compound was dissolved in dimethyl sulfoxide at a concentration of 20 mM and then the resulting solutions (1 μL) were added to each well. The plate was cultured at 30° C. for 6 days and then the absorbance of the each well was measured at 540 nm.
(§1) And also, specificity of the inhibitory activity was evaluated, using the yeast cells cotransformed with the LexA-KRS vector and the B42-AIMP2 vector; and the yeast cells co-transformed with the LexA-KRS vector and the B42-AIMP3 vector, which were respectively prepared according to WO2011/056021. The co-transformation was carried out using the Yeastmaker yeast transformation system2 kit (Clontech), according to the manufacturer's instruction. […] The cultured yeast cells were diluted with the said galactose medium, until the absorbance at 540 nm attains to about 0.15 to 0.2. The diluted culture (200 μL), containing the yeast cells, was added to each well of a 96-well plate. Each test compound was dissolved in dimethyl sulfoxide at a concentration of 20 mM and then the resulting solutions (1 μL) were added to each well. The plate was cultured at 30° C. for 6 days and then the absorbance of each well was measured at 540 nm. The respective yeast cell proliferation rates (%) in the treated samples were calculated in comparison with those of the non-treated control (100%) and the results thereof are shown in Table 1 below.
When KRS is bound to LR, the trans-activation domain is come close to the DNA-binding domain and the genes for synthesizing essential amino acids are expressed, which leads to normal growth of the transformed yeasts, thereby increasing the absorbance.

[2] = target: T2, binding between KRS and AIMP3 (Homo sapiens, UniProt Q15046); assay: Yeast Two Hybrid specificity test, LexA-KRS / B42-AIMP3 co-transformed yeast cells; details: 1 μL of 20 mM DMSO solution per 200 μL culture; 30° C., 6 days; absorbance 540 nm; non-treated control = 100%
T2 construct: expressed in transfected cells; host or cells: yeast cells (co-transformed)
T2 sequence (Q15046 whole entry): as above
Description: as §1

A549 cells = assay: Cell Migration Assay (transwell, laminin); details: Homo sapiens, laminin 10 μg/mL in lower well, test compounds 0.39˜100 μM, 6 hours at 37° C.
Description: Cell migration was measured with a 24-well transwell having a polycarbonate membrane (8.0 μm pore size, Costar) at the bottom of the upper chamber. Each lower well was treated with laminin (10 μg/mL) and test compounds (0.39˜100 μM) along with a serum-free RPMI1640 medium. A549 cells (Korean Cell Line Bank) were suspended in a serum-free RPMI1640 medium at a concentration of 1×10^6 cells/mL and then the test compounds were added thereto at the indicated concentrations. Each resulting solution (100 μL) was added to the upper chamber. The cells were cultured at 37° C. for 6 hours in a CO2 incubator. The upper chamber was taken out and then the cells were fixed with PBS containing 70% methyl alcohol for 10 minutes, followed by washing with PBS twice. The cells were stained with hematoxylin (Sigma) for 10 minutes and then washed with distilled water. The non-migrated cells were removed from the upper portion of the polycarbonate membrane with a cotton swab. The membranes were excised and separated from the chamber, and then mounted to a slide using a gel mount reagent (Biomeda, USA). The migrated cells (attached to the lower face of the membrane) were counted at three randomly selected sites under a microscope (×20). The cell counting was performed with the Image J program. From the counted cell numbers, each IC50 value was calculated by non-linear regression curve fit using the “GraphPad Prism” program.
The cells are pulled by laminin residing in the lower chamber and then passed through the polycarbonate membrane, so as to attach to the lower face of the membrane.

[3] = target: T3, binding between KRS and AIMP2 (Homo sapiens, UniProt Q15046); assay: Yeast Two Hybrid specificity test, LexA-KRS / B42-AIMP2 co-transformed yeast cells; details: 1 μL of 20 mM DMSO solution per 200 μL culture; 30° C., 6 days; absorbance 540 nm; non-treated control = 100%
T3 construct: expressed in transfected cells; host or cells: yeast cells (co-transformed)
T3 sequence (Q15046 whole entry): as above
Description: as §1

Yeast cell proliferation rates KRS-LR (%) [1] [%]	Yeast cell proliferation rates KRS-AIMP3 (%) [2] [%]	IC50 (A549 cells) [µM]	Yeast cell proliferation rates KRS-AIMP2 (%) [3] [%]	Structure (SMILES)
41.4	105.3	22	106.0	CCOc1ccc2c(c1)sc(=NC(=O)c1cccc(Cl)c1)n2C(C)C(=O)O (centres unmarked) [Example 55, 2-{2-[(3-chlorobenzoyl)imino]-6-ethoxybenzo[d]thiazol-3(2H)-yl}propionic acid]
36.3	104.1	37.9	90.0	CC(C(=O)O)n1c(=NC(=O)c2cccc(Cl)c2)sc2cc(C(F)(F)F)ccc21 (centres unmarked) [Example 172, 2-(2-((3-chlorobenzoyl)imino)-6-(trifluoromethyl)benzo[d]thiazol-3(2H)-yl)propionic acid]
14.6	99.0	36	89.6	O=C(O)Cn1c(=NC(=O)c2cccc(Cl)c2)sc2ccc(Cl)cc21 [Example 312, 2-(5-chloro-2-(3-chlorobenzoylimino)benzo[d]thiazol-3(2H)-yl)acetic acid]
11.6	99.1	25.4	108.2	CC(C(=O)O)n1c(=NC(=O)c2cccc(Cl)c2)sc2c(F)c(Cl)ccc21 (centres unmarked) [Example 385, 2-(6-chloro-2-((3-chlorobenzoyl)imino)-7-fluorobenzo[d]thiazol-3(2H)-yl)propionic acid]
31.7	80.8	29.6	97.7	CCC(C(=O)O)n1c(=NC(=O)c2cccc(Cl)c2)sc2cc(C)ccc21 (centres unmarked) [Example 59, 2-{2-[(3-chlorobenzoyl)imino]-6-methylbenzo[d]thiazol-3(2H)-yl}butanoic acid]
15.9	105.4	6.5	100.2	CCC(C(=O)O)n1c(=NC(=O)c2cccc(Cl)c2)sc2c(Cl)cccc21 (centres unmarked) [Example 310, 2-(7-chloro-2-((3-chlorobenzoyl)imino)benzo[d]thiazol-3(2H)-yl)butanoic acid]
28.8	104.1	20.1	99.2	CCC(C(=O)O)n1c(=NC(=O)c2ccc(C(F)(F)F)cc2)sc2ccccc21 (centres unmarked) [Example 64, 2-{2-[4-(trifluoromethyl)benzoylimino]benzo[d]thiazol-3(2H)-yl}butanoic acid]
39.4	106.5	14.7	95.0	CCC(C(=O)O)n1c(=NC(=O)c2cccc(C(F)(F)F)c2)sc2ccccc21 (centres unmarked) [Example 142, 2-[2-(3-(trifluoromethyl)benzoylimino)benzo[d]thiazol-3(2H)-yl]butanoic acid]

More lines, now with the values behind:

Structure (SMILES)	Yeast cell proliferation rates KRS-LR (%) [1] [%]	Yeast cell proliferation rates KRS-AIMP3 (%) [2] [%]	IC50 (A549 cells) [µM]	Yeast cell proliferation rates KRS-AIMP2 (%) [3] [%]
CC(C(=O)O)n1c(=NC(=O)c2cccc(C(F)(F)F)c2)sc2ccccc21 (centres unmarked) [Example 133, 2-{2-[3-(trifluoromethyl)benzoylimino]benzo[d]thiazol-3(2H)-yl}propionic acid]	33.2	92.8	11.4	82.1
CCC(C(=O)O)n1c(=NC(=O)c2cccc(Cl)c2)sc2c(F)c(F)ccc21 (centres unmarked) [Example 338, 2-(2-((3-chlorobenzoyl)imino)-6,7-difluorobenzo[d]thiazol-3(2H)-yl)butanoic acid]	12.6	107.2	81.3	104.0
CCC(C(=O)O)n1c(=NC(=O)c2cccc(Cl)c2)sc2c(F)c(Cl)ccc21 (centres unmarked) [Example 386, 2-(6-chloro-2-((3-chlorobenzoyl)imino)-7-fluorobenzo[d]thiazol-3(2H)-yl)butanoic acid]	11.2	106.3	8.3	103.9
Cc1ccc(C(=O)N=c2sc3c(Cl)cccc3n2C(C)C(=O)O)cc1 (centres unmarked) [Example 109, 2-[7-chloro-2-(4-methylbenzoylimino)benzo[d]thiazol-3(2H)-yl]propionic acid]	30.2	98.2	57	102.0
CC(C(=O)O)n1c(=NC(=O)c2cccc(C(F)(F)F)c2)sc2c(F)cc(F)cc21 (centres unmarked) [Example 458, 2-(5,7-difluoro-2-((3-(trifluoromethyl)benzoyl)imino)benzo[d]thiazol-3(2H)-yl)propionic acid]	30.8	100.0	61	96.4
Cc1ccc2c(sc(=NC(=O)c3cccc(Cl)c3)n2C(C)C(=O)O)c1F (centres unmarked) [Example 424, 2-(2-((3-chlorobenzoyl)imino)-7-fluoro-6-methylbenzo[d]thiazol-3(2H)-yl)propionic acid]	15.6	104.6	78	99.9
CCC(C(=O)O)n1c(=NC(=O)c2ccc(C)cc2)sc2c(F)cccc21 (centres unmarked) [Example 93, 2-[7-fluoro-2-(4-methylbenzoylimino)benzo[d]thiazol-3(2H)-yl]butanoic acid]	33.2	102.7	17.6	88.5
CCC(C(=O)O)n1c(=NC(=O)c2ccc(C)cc2)sc2cc(C(F)(F)F)ccc21 (centres unmarked) [Example 155, 2-[2-(4-methylbenzoylimino)-6-(trifluoromethyl)benzo[d]thiazol-3(2H)-yl]butanoic acid]	29.7	100.0	16.7	102.4
CCC(C(=O)O)n1c(=NC(=O)c2cccc(Cl)c2)sc2ccccc21 (centres unmarked) [Example 139, 2-[2-(3-chlorobenzoylimino)benzo[d]thiazol-3(2H)-yl]butanoic acid]	31.5	102.1	18.9	79.4
